This is an account of results in PubChem BioAssay (NCI).

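Following 48 hours of exposure in 96-well plates, responses at five concentrations were used to interpolate endpoints linearly. GI50: concentration for 50% inhibition of growth. At the TGI there is no net growth.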 Where a SMILES comes first, the peptide text is derived from it. The star is where a group is joined. Boc = CC(C)(C)OC(=O)*

Among the test systems are OVCAR-5 ovarian; NCI-H460 lung; 786-0 renal; MCF7 breast; HL-60(TB) leukemia; LOX IMVI melanoma; NCI-H522 lung; MDA-MB-231 breast; SK-MEL-2 melanoma; HCT-15 colon; UACC-62 melanoma; EKVX NSCLC; RPMI-8226 leukemia; SF-539 CNS; UACC-257 melanoma; HCC-2998 colon; CAKI-1 renal; DU-145 prostate.
Holding throughout (experiment): DTP human tumour cell line panel, 48 h

`NCCSC1(O)C(=O)c2ccccc2-c2ccccc21` (stereo not drawn): the TGI was found to be 3.34 µM in the assay on OVCAR-5 ovarian; 3.34 µM in the assay with NCI-H460 lung; 3.46 µM in the assay with 786-0 renal; 3.64 µM in the assay with MCF7 breast; 2.55 µM with HL-60(TB) leukemia; 0.717 µM in the assay on LOX IMVI melanoma. Further, the TGI in the assay on NCI-H522 lung came out at 2.95 µM; in the assay with MDA-MB-231 breast, 2.53 µM; with SK-MEL-2 melanoma, 3.47 µM; with HCT-15 colon it was 2.54 µM; in the assay on UACC-62 melanoma it was 2.91 µM; with EKVX NSCLC, 3.11 µM. Also, the TGI was determined as 0.637 µM in the assay with RPMI-8226 leukemia; 2.67 µM in the assay on SF-539 CNS; 2.09 µM in the assay with UACC-257 melanoma; 3.56 µM in the assay with HCC-2998 colon; 3.05 µM in the assay with CAKI-1 renal; 2.28 µM with DU-145 prostate. Also, the results for the GI50 in the assay on HCC-2998 colon and in the assay on CAKI-1 renal were 2.01 µM and 1.63 µM, respectively.

As to `CNC(=O)CNC(=O)C(NC(=O)CNC(=O)C1CCCN1C(=O)C(C)NC(=O)C(NC(=O)OC(C)(C)C)C(C)C)C(C)C` (stereo not drawn) (Boc-VAPGVG-NHMe; configuration not given here), the TGI with OVCAR-5 ovarian, in the assay on NCI-H460 lung, with 786-0 renal, in the assay on MCF7 breast, in the assay with HL-60(TB) leukemia and in the assay on LOX IMVI melanoma was > 100 µM each time. The TGI in the assay with NCI-H522 lung, in the assay on MDA-MB-231 breast, with SK-MEL-2 melanoma, in the assay with HCT-15 colon, with UACC-62 melanoma and in the assay on EKVX NSCLC was > 100 µM each time. For the same molecule, the TGI with RPMI-8226 leukemia, in the assay on SF-539 CNS, in the assay on UACC-257 melanoma, in the assay with HCC-2998 colon, in the assay on CAKI-1 renal and in the assay with DU-145 prostate was > 100 µM throughout.

Consider `Brc1ccc(N=C/C=C(\Nc2ccc(Br)cc2)C23CC4CC(CC(C4)C2)C3)cc1`, for which the TGI in the assay on OVCAR-5 ovarian was > 67.8 µM; with NCI-H460 lung, > 68.8 µM; in the assay with 786-0 renal it was 28.9 µM; in the assay on MCF7 breast, 28.4 µM; with HL-60(TB) leukemia, 23.3 µM; in the assay with LOX IMVI melanoma, 21.8 µM. Further, the TGI is 30.5 µM in the assay with NCI-H522 lung; 31.9 µM in the assay on MDA-MB-231 breast; 28.3 µM in the assay on SK-MEL-2 melanoma; > 46.6 µM in the assay with HCT-15 colon; 15 µM in the assay on UACC-62 melanoma; 56.2 µM in the assay on EKVX NSCLC. For the same molecule, the TGI in the assay on RPMI-8226 leukemia is > 100 µM; with SF-539 CNS, 51.8 µM; in the assay on UACC-257 melanoma, 36.8 µM; in the assay on HCC-2998 colon, 35.8 µM; in the assay with CAKI-1 renal, 25.4 µM; with DU-145 prostate it was 35.4 µM.

For the molecule `CCOC(=O)c1sc2c(c1OC(=O)c1ccc(Cl)cc1Cl)c(=O)n(-c1ccccc1)c(=S)n2-c1ccccc1`, the total growth inhibition concentration (TGI) in the assay on OVCAR-5 ovarian was > 100 µM; with NCI-H460 lung it was > 55 µM; in the assay with 786-0 renal, > 100 µM; with MCF7 breast, > 100 µM; with HL-60(TB) leukemia it was 30.9 µM; in the assay with LOX IMVI melanoma it was > 81.1 µM. Also, the TGI was > 100 µM in the assay with NCI-H522 lung; > 90.8 µM in the assay with MDA-MB-231 breast; 18.6 µM with SK-MEL-2 melanoma; 38.6 µM with HCT-15 colon; > 80.2 µM with UACC-62 melanoma; 97.2 µM with EKVX NSCLC. Besides, the TGI in the assay with RPMI-8226 leukemia is > 54.5 µM; with SF-539 CNS, > 100 µM; in the assay with UACC-257 melanoma, > 100 µM; in the assay with HCC-2998 colon, > 74.6 µM; in the assay on CAKI-1 renal, > 100 µM; with DU-145 prostate it was > 100 µM.

For `CCN1CCC(O)(/C=C/c2cccc(C)c2)C(C(=O)/C=C/c2cccc(C)c2)C1` (stereo not drawn), the TGI with OVCAR-5 ovarian was 6.98 µM; in the assay with NCI-H460 lung it was 4.64 µM; in the assay on 786-0 renal, 5.83 µM; with MCF7 breast, 6.44 µM; with HL-60(TB) leukemia, > 100 µM; with LOX IMVI melanoma, 5.02 µM. For the same molecule, the concentration for total growth inhibition (TGI) with NCI-H522 lung was 4.65 µM; with MDA-MB-231 breast, 11.5 µM; with SK-MEL-2 melanoma, 5.56 µM; in the assay with HCT-15 colon, 6.29 µM; with UACC-62 melanoma it was 3.54 µM; in the assay with EKVX NSCLC it was 4.25 µM. For the same molecule, the concentration for total growth inhibition (TGI) is 4.78 µM in the assay on RPMI-8226 leukemia; 5.4 µM with SF-539 CNS; 7.31 µM in the assay with UACC-257 melanoma; 2.96 µM in the assay on HCC-2998 colon; 4.31 µM in the assay on CAKI-1 renal; 13.8 µM with DU-145 prostate.

`Cc1ccc(C2=NN=C3C(c4ccccc4)=Nc4ccccc4N3C2)cc1`: the TGI is 99.6 µM with OVCAR-5 ovarian; 18.6 µM with NCI-H460 lung; > 50.7 µM with 786-0 renal; > 89.3 µM in the assay with MCF7 breast; 9.64 µM with HL-60(TB) leukemia; > 100 µM with LOX IMVI melanoma. Further, the TGI in the assay with NCI-H522 lung was 26.8 µM; with MDA-MB-231 breast, > 100 µM; with SK-MEL-2 melanoma, > 100 µM; in the assay on HCT-15 colon, > 100 µM; with UACC-62 melanoma, > 100 µM; in the assay on EKVX NSCLC, > 42.6 µM. In addition, the TGI in the assay with RPMI-8226 leukemia is > 73 µM; in the assay with SF-539 CNS, > 100 µM; with UACC-257 melanoma, 33.6 µM; with HCC-2998 colon, > 100 µM; with CAKI-1 renal it was > 100 µM; with DU-145 prostate it was 32.3 µM.

In the case of `CCOc1ccc(-n2c(=O)c3nn4c(=O)n(-c5ccc(OCC)cc5)c(=O)c4nn3c2=O)cc1`, the TGI in the assay with OVCAR-5 ovarian, with NCI-H460 lung, in the assay on 786-0 renal, with MCF7 breast, in the assay with HL-60(TB) leukemia and in the assay with LOX IMVI melanoma was > 100 µM each time. For the same molecule, the TGI in the assay on NCI-H522 lung, in the assay on MDA-MB-231 breast, with SK-MEL-2 melanoma, with HCT-15 colon, in the assay with UACC-62 melanoma and with EKVX NSCLC was > 100 µM in each case. For the same molecule, the total growth inhibition concentration (TGI) in the assay with RPMI-8226 leukemia, in the assay on SF-539 CNS, in the assay with UACC-257 melanoma, with HCC-2998 colon, with CAKI-1 renal and in the assay with DU-145 prostate was > 100 µM in each case.
